From PubChem BioAssay (NCI) come the findings set out here.

Holding throughout (experiment): NCI anticancer screen, dose series, 48 h
Assay [1] concerns PC-3 prostate.
The subject of assay [2] is A549 NSCLC.
Assay [3] has as its system HOP-62 NSCLC.
For assay [4], the system named is COLO 205 colon.
The test system of assay [5] is U251 CNS.
The test system of assay [6] is HCT-15 colon.
Assay [7] has as its system MDA-MB-435.
The subject of assay [8] is K-562 leukemia.
The subject of assay [9] is HOP-92 NSCLC.
Assay [10] deals with IGROV1 ovarian.

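Growth conditions: 96-well plates. Treatment: test compound, 48 hours, 5 concentrations. Analysis: linear interpolation between bracketing concentrations; unreached endpoints set to highest concentration. The concentration for 50% growth inhibition is given as GI50. Definition used: TGI = concentration required for complete inhibition of growth.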 Some results are limits rather than exact numbers.

With `COc1cc(N(CCCl)CCCl)ccc1/C=N\NC(=O)c1cccnc1`, the GI50 in assay [1] was 21.4 µM; in assay [2] it was 12.1 µM; in [3] it was 34.9 µM; in [4], 13.5 µM; in assay [5], 23.8 µM; in assay [6], 27.2 µM. For the same compound, the GI50 in assay [7] was 30.3 µM; in assay [8], 36.6 µM; in [9] it was 14.1 µM; in [10] it was 36 µM. Also, the TGI in [1], in [2], in assay [3], in assay [4], in assay [5] and in assay [6] was above 100 µM each time. In addition, the TGI in assay [7] was above 100 µM; in [8], above 100 µM; in assay [9], 45.4 µM; in assay [10], above 100 µM.

For `N=c1oc2cc(O)ccc2cc1C(=O)Nc1cccc2ccccc12`, the TGI in assay [1] was 10.2 µM; in [2], 23.2 µM; in assay [3], above 44 µM; in [4], 34.6 µM; in assay [5] it was 12.4 µM; in assay [6] it was 11.5 µM. Moreover, the TGI was 6.54 µM in assay [7], above 42.7 µM in assay [8], 14.5 µM in assay [9] and 14.4 µM in [10].

As for `Nc1ccc(C2SCC(=O)N2NS(=O)(=O)c2cccc(C(=O)O)c2)cc1` (stereo not given), the TGI in assay [1], in assay [2], in assay [3], in assay [4], in assay [5] and in assay [6] was above 100 µM each time. Also, the TGI in [7], in [8], in [9] and in assay [10] was above 100 µM each time.

For the compound `Nc1ncnc2c1ccn2-c1cccc(NC(=O)c2ccc(N3CCOCC3)c(C(F)(F)F)c2)c1`, the GI50 in assay [1] is 2.51 µM; in [2] it was 3.41 µM; in [3], 3.62 µM; in assay [4], 3.79 µM; in assay [5], 2.41 µM; in assay [6] it was 2.74 µM. Moreover, the GI50 in assay [7] is 2.64 µM; in assay [8], 2.41 µM; in assay [9], 1.6 µM; in assay [10], 3.83 µM. The TGI was 10.4 µM in [1]; 15.2 µM in assay [2]; 15.5 µM in assay [3]; 15.1 µM in [4]; 6.44 µM in assay [5]; 10.4 µM in [6]. Besides, the TGI was determined as 13.2 µM in assay [7], 16 µM in assay [8], 5.82 µM in [9] and 33.2 µM in assay [10].

Consider `O=C(NC(OCc1ccccc1)(C(F)(F)F)C(F)(F)F)OCc1ccccc1`, for which the TGI was 26.7 µM in [1]; 28.5 µM in assay [2]; 28.4 µM in assay [3]; 31.6 µM in assay [4]; 27.1 µM in assay [5]; 26.7 µM in [6]. The TGI in assay [7] was 31 µM; in assay [8] it was 36.8 µM; in [9], 27.8 µM; in assay [10], 28.6 µM.

With `COc1ccc2nc3cc(Cl)ccc3c(NCCCCCC(=O)NC(COc3ccc4ccc5cccnc5c4n3)COc3ccc4ccc5cccnc5c4n3)c2c1`, the TGI in assay [1] is 28.4 µM; in assay [2] it was 50.1 µM; in assay [3] it was above 100 µM; in assay [4], 32.2 µM; in assay [5] it was 26.7 µM; in assay [6], above 100 µM. Also, the TGI was above 100 µM in assay [7], 26.3 µM in assay [8], 44.1 µM in assay [9] and 37.4 µM in assay [10].

As for `C=C1CC[C@@H]2[C@](C)(COC(=O)CCC(=O)O)CCC[C@@]2(C)[C@@H]1CCC1=CC(=O)OC1`, the TGI in assay [1], in [2], in assay [3], in assay [4], in [5] and in assay [6] was above 100 µM each time. In addition, the TGI in assay [7], in assay [8], in [9] and in [10] was above 100 µM throughout.

Consider `CCCCCCCCCCCCCCCC(=O)OC1C(O)C(O)C(O)C(O)C12CO2` (stereo not given), for which the TGI in [1] is 89.7 µM; in [2] it was above 100 µM; in assay [3], above 100 µM; in assay [4], above 100 µM; in assay [5], 39.2 µM; in assay [6] it was 63.5 µM. In addition, the TGI in [7] was above 100 µM; in [8], 67.8 µM; in [9] it was 56.1 µM; in assay [10] it was above 100 µM.

On to `Cc1ccc(-c2cc(=O)c(=O)[nH][nH]2)cc1`, for which the TGI in assay [1], in assay [2], in assay [3], in assay [4], in [5] and in assay [6] was above 100 µM each time. The TGI in [7], in [8], in [9] and in assay [10] was above 100 µM in each case.

For `NS(=O)(=O)c1ccc(NC(=O)c2ccc3nc4ccccc4c(Nc4ccc(S(N)(=O)=O)cc4)c3c2)cc1`, the TGI in [1], in assay [2], in assay [3], in [4], in assay [5] and in assay [6] was above 100 µM throughout. The TGI in assay [7], in assay [8], in assay [9] and in assay [10] was above 100 µM each time.
